In US20150246902A1, “SUBSTITUED BENZOFURAN COMPOUNDS AND METHODS OF USE THEREOF FOR THE TREATMENT OF VIRAL DISEASES” (priority 2011, published 2015) one finds IC50 data, which are given here for 43 molecules.

pIC50: −log10 of the molar value.

In one assay the test system is HCV replicon genotype 1b. The assay can be described thus: microbe, parasite or virus in culture. The class given is cell-based. The conditions noted are these: Hepatitis C virus, 96 h, HCV genotype 1b replicon cells, 96 hours incubation, NS3/4A ELISA readout.
In another assay the test system is HCV replicon genotype 1a. Nature of the assay: microbe, parasite or virus in culture. The conditions noted are these: Hepatitis C virus, 96 h, HCV genotype 1a replicon cells, 96 hours incubation, NS3/4A ELISA readout. The class given is cell-based.

In the case of `CNC(=O)c1c(-c2ccc(F)cc2)oc2cc(N(C)S(C)(=O)=O)c(-c3ccc4ncn(-c5ccc(OC)cc5)c4c3)cc12` [Compound 1, 2-(4-fluorophenyl)-5-(1-(4-methoxyphenyl)-1H-benzo[d]imidazol-6-yl)-N-methyl-6-(N-methylmethylsulfonamido)benzofuran-3-carboxamide], the negative logarithm of the IC50 (pIC50) (usually the negative decadic logarithm of the IC50, by convention in mol/L) is 8.34 with HCV replicon genotype 1b and 7.78 in the assay with HCV replicon genotype 1a.

On to `CNC(=O)c1c(-c2ccc(F)cc2)oc2cc(N(C)S(C)(=O)=O)c(-c3ccc4ncn(-c5ccccc5)c4c3)cc12` [Compound 2], for which the negative logarithm of the IC50 (pIC50) with HCV replicon genotype 1b was 8.60; in the assay with HCV replicon genotype 1a, 7.88.

With `CNC(=O)c1c(-c2ccc(F)cc2)oc2cc(N(C)S(C)(=O)=O)c(-c3ccc4ncn(-c5ccccc5F)c4c3)cc12` [Compound 3], the negative logarithm of the IC50 (pIC50) is 8.24 in the assay with HCV replicon genotype 1b and 7.17 in the assay with HCV replicon genotype 1a.

As for `CNC(=O)c1c(-c2ccc(F)cc2)oc2cc(N(C)S(C)(=O)=O)c(-c3ccc4ncn(-c5cccc(OC)c5)c4c3)cc12` [Compound 4], the values for the negative-log IC50 (pIC50) with HCV replicon genotype 1b and in the assay with HCV replicon genotype 1a were 8.60 and 7.58, respectively.

On to `CNC(=O)c1c(-c2ccc(F)cc2)oc2cc(N(C)S(C)(=O)=O)c(-c3ccc4ncn(-c5ccc(C#N)cc5)c4c3)cc12` [Compound 5], for which the pIC50 was 9.10 in the assay on HCV replicon genotype 1b and 8.68 with HCV replicon genotype 1a.

For the molecule `CNC(=O)c1c(-c2ccc(F)cc2)oc2cc(N(C)S(C)(=O)=O)c(-c3ccc4ncn(-c5cccc(C#N)c5)c4c3)cc12` [Compound 6], the figures for the pIC50 with HCV replicon genotype 1b and in the assay with HCV replicon genotype 1a were 8.92 and 7.97, respectively.

For `CNC(=O)c1c(-c2ccc(F)cc2)oc2cc(N(C)S(C)(=O)=O)c(-c3ccc4ncn(-c5ccc(C(F)(F)F)cc5)c4c3)cc12` [Compound 7], the negative logarithm of the IC50 (pIC50) in the assay on HCV replicon genotype 1b is 8.66; in the assay with HCV replicon genotype 1a, 8.59.

For `CNC(=O)c1c(-c2ccc(F)cc2)oc2cc(N(C)S(C)(=O)=O)c(-c3ccc4ncn(-c5cccc(C(F)(F)F)c5)c4c3)cc12` [Compound 8], the values for the negative logarithm of the IC50 (pIC50) in the assay with HCV replicon genotype 1b and in the assay with HCV replicon genotype 1a were 8.41 and 7.56, respectively.

As to `CNC(=O)c1c(-c2ccc(F)cc2)oc2cc(N(C)S(C)(=O)=O)c(-c3ccc4ncn(-c5ccccc5C(F)(F)F)c4c3)cc12` [Compound 9], the values for the negative-log IC50 (pIC50) in the assay on HCV replicon genotype 1b and with HCV replicon genotype 1a were 8.15 and 7.12, respectively.

`CNC(=O)c1c(-c2ccc(F)cc2)oc2cc(N(C)S(C)(=O)=O)c(-c3ccc4ncn(-c5ccc(Cl)cc5)c4c3)cc12` [Compound 10]: the negative-log IC50 (pIC50) with HCV replicon genotype 1b was 8.44; with HCV replicon genotype 1a, 8.40.

`CNC(=O)c1c(-c2ccc(F)cc2)oc2cc(N(C)S(C)(=O)=O)c(-c3ccc4ncn(-c5ccccc5Cl)c4c3)cc12` [Compound 11]: the values for the negative-log IC50 (pIC50) in the assay on HCV replicon genotype 1b and in the assay with HCV replicon genotype 1a were 8.46 and 7.41, respectively.

Consider `CNC(=O)c1c(-c2ccc(F)cc2)oc2cc(N(C)S(C)(=O)=O)c(-c3ccc4ncn(-c5cccc(Cl)c5)c4c3)cc12` [Compound 12], for which the values for the pIC50 in the assay with HCV replicon genotype 1b and in the assay on HCV replicon genotype 1a were 8.59 and 7.93, respectively.

For `CNC(=O)c1c(-c2ccc(F)cc2)oc2cc(N(C)S(C)(=O)=O)c(-c3ccc4ncn(-c5ccc(S(C)(=O)=O)cc5)c4c3)cc12` [Compound 13], the pIC50 with HCV replicon genotype 1b is 8.42; with HCV replicon genotype 1a it was 7.74.

On to `CNC(=O)c1c(-c2ccc(F)cc2)oc2cc(N(C)S(C)(=O)=O)c(-c3ccc4ncn(-c5cccc(F)c5)c4c3)cc12` [Compound 14], for which the pIC50 in the assay on HCV replicon genotype 1b was 8.92; in the assay on HCV replicon genotype 1a it was 8.57.

`CNC(=O)c1c(-c2ccc(F)cc2)oc2cc(N(C)S(C)(=O)=O)c(-c3ccc4ncn(-c5ccc(F)cc5)c4c3)cc12` [Compound 15]: the negative logarithm of the IC50 (pIC50) is 8.92 in the assay on HCV replicon genotype 1b and 8.26 with HCV replicon genotype 1a.

As to `CNC(=O)c1c(-c2ccc(F)cc2)oc2cc(N(C)S(C)(=O)=O)c(-c3ccc4ncn(-c5cccnc5)c4c3)cc12` [Compound 16], the pIC50 in the assay on HCV replicon genotype 1b is 8.34; in the assay on HCV replicon genotype 1a it was 7.43.

As for `CNC(=O)c1c(-c2ccc(F)cc2)oc2cc(N(C)S(C)(=O)=O)c(-c3ccc4ncn(-c5ccc(OC(F)(F)F)cc5)c4c3)cc12` [Compound 17], the negative logarithm of the IC50 (pIC50) was 7.89 with HCV replicon genotype 1b and 7.42 in the assay with HCV replicon genotype 1a.

Turning to `CNC(=O)c1c(-c2ccc(F)cc2)oc2cc(N(C)S(C)(=O)=O)c(-c3ccc4nc(C)n(-c5ccccc5)c4c3)cc12` [Compound 18], the negative-log IC50 (pIC50) in the assay with HCV replicon genotype 1b is 8.68; in the assay with HCV replicon genotype 1a it was 7.78.

As for `CNC(=O)c1c(-c2ccc(F)cc2)oc2cc(N(C)S(C)(=O)=O)c(-c3ccc4nc(C)n(-c5ccc(F)cc5)c4c3)cc12` [Compound 19], the negative-log IC50 (pIC50) was 8.66 in the assay with HCV replicon genotype 1b and 7.89 in the assay on HCV replicon genotype 1a.

As to `CNC(=O)c1c(-c2ccc(F)cc2)oc2cc(N(C)S(C)(=O)=O)c(-c3cc(F)c4ncn(-c5ccccc5)c4c3)cc12` [Compound 20], the pIC50 in the assay on HCV replicon genotype 1b is 8.62; in the assay with HCV replicon genotype 1a, 8.21.

Take `CNC(=O)c1c(-c2ccc(F)cc2)oc2cc(N(C)S(C)(=O)=O)c(-c3ccc4c(c3)ncn4-c3cccnc3)cc12` [Compound 22]: the pIC50 was 8.48 in the assay with HCV replicon genotype 1b and 7.84 with HCV replicon genotype 1a.

Take `CNC(=O)c1c(-c2ccc(F)cc2)oc2cc(N(C)S(C)(=O)=O)c(-c3ccc4ncn(C5CCN(C(=O)OC(C)(C)C)CC5)c4c3)cc12` [Compound 23]: the figures for the negative logarithm of the IC50 (pIC50) with HCV replicon genotype 1b and with HCV replicon genotype 1a were 8.09 and 7.44, respectively.

`CNC(=O)c1c(-c2ccc(F)cc2)oc2cc(N(C)S(C)(=O)=O)c(-c3ccc4ncn(C5CCCN(C(=O)OC(C)(C)C)C5)c4c3)cc12` (centres unmarked) [Compound 24]: the pIC50 in the assay on HCV replicon genotype 1b is 7.08; with HCV replicon genotype 1a, 6.12.

As for `CNC(=O)c1c(-c2ccc(F)cc2)oc2cc(N(C)S(C)(=O)=O)c(-c3ccc4ncn(C5CCCNC5)c4c3)cc12` (centres unmarked) [Compound 25], the negative-log IC50 (pIC50) in the assay on HCV replicon genotype 1b was 7.29; in the assay with HCV replicon genotype 1a it was 6.23.

Consider `CNC(=O)c1c(-c2ccc(F)cc2)oc2cc(N(C)S(C)(=O)=O)c(-c3ccc4ncn(C5CCOCC5)c4c3)cc12` [Compound 26], for which the negative-log IC50 (pIC50) in the assay on HCV replicon genotype 1b is 7.92; in the assay on HCV replicon genotype 1a it was 7.19.

Turning to `CNC(=O)c1c(-c2ccc(F)cc2)oc2cc(N(C)S(C)(=O)=O)c(-c3cc(F)c4ncn(-c5ccc(F)cc5)c4c3)cc12` [Compound 28], the figures for the negative logarithm of the IC50 (pIC50) in the assay with HCV replicon genotype 1b and in the assay with HCV replicon genotype 1a were 8.48 and 8.38, respectively.

`CNC(=O)c1c(-c2ccc(F)cc2)oc2cc(N(C)S(C)(=O)=O)c(-c3cc(F)c4ncn(-c5ccc(F)c(F)c5)c4c3)cc12` [Compound 29]: the pIC50 in the assay with HCV replicon genotype 1b was 8.48; in the assay with HCV replicon genotype 1a it was 8.30.

Consider `CNC(=O)c1c(-c2ccc(F)cc2)oc2cc(N(C)S(C)(=O)=O)c(-c3cc(F)c4ncn(-c5cc(F)cc(F)c5)c4c3)cc12` [Compound 30], for which the negative logarithm of the IC50 (pIC50) is 8.55 in the assay with HCV replicon genotype 1b and 8.20 in the assay on HCV replicon genotype 1a.

As to `CNC(=O)c1c(-c2ccc(F)cc2)oc2cc(N(C)S(C)(=O)=O)c(-c3cc(F)c4ncn(-c5cc(F)c(F)c(F)c5)c4c3)cc12` [Compound 31], the pIC50 in the assay on HCV replicon genotype 1b was 8.51; with HCV replicon genotype 1a it was 8.47.

Consider `CNC(=O)c1c(-c2ccc(F)cc2)oc2cc(N(C)S(C)(=O)=O)c(-c3cc(F)c4nc(C)n(-c5ccc(F)c(C#N)c5)c4c3)cc12` [Compound 32], for which the negative-log IC50 (pIC50) was 8.51 in the assay with HCV replicon genotype 1b and 8.28 in the assay on HCV replicon genotype 1a.

Consider `CNC(=O)c1c(-c2ccc(F)cc2)oc2cc(N(C)S(C)(=O)=O)c(-c3cc(OC)c4nc(C)n(-c5ccc(F)cc5)c4c3)cc12` [Compound 33], for which the pIC50 in the assay with HCV replicon genotype 1b was 8.06; in the assay on HCV replicon genotype 1a it was 7.86.

For `CNC(=O)c1c(-c2ccc(F)cc2)oc2cc(N(C)S(C)(=O)=O)c(-c3cc(F)c4nc(C)n(-c5cc(F)cc(F)c5)c4c3)cc12` [Compound 34], the pIC50 in the assay on HCV replicon genotype 1b was 8.37; in the assay with HCV replicon genotype 1a, 7.61.

As to `CNC(=O)c1c(-c2ccc(F)cc2)oc2cc(N(C)S(C)(=O)=O)c(-c3ccc4ncn(-c5ccc(F)cn5)c4c3)cc12` [Compound 35], the negative logarithm of the IC50 (pIC50) was 8.23 with HCV replicon genotype 1b and 7.45 in the assay on HCV replicon genotype 1a.

In the case of `CNC(=O)c1c(-c2ccc(F)cc2)oc2cc(N(C)S(C)(=O)=O)c(-c3ccc4ncn(-c5cncc(F)c5)c4c3)cc12` [Compound 36], the pIC50 in the assay on HCV replicon genotype 1b is 8.19; in the assay on HCV replicon genotype 1a it was 7.44.

On to `CNC(=O)c1c(-c2ccc(F)cc2)oc2cc(N(C)S(C)(=O)=O)c(-c3cc(OC)c4nc(C)n(-c5cc(F)cc(F)c5)c4c3)cc12` [Compound 37], for which the negative-log IC50 (pIC50) is 8.37 with HCV replicon genotype 1b and 8.17 in the assay with HCV replicon genotype 1a.

As to `CNC(=O)c1c(-c2ccc(F)cc2)oc2cc(N(C)S(C)(=O)=O)c(-c3cccc4c3ncn4-c3ccccc3)cc12` [Compound 38], the pIC50 with HCV replicon genotype 1b is 6.81; with HCV replicon genotype 1a, 6.20.

Take `CNC(=O)c1c(-c2ccc(F)cc2)oc2cc(N(C)S(C)(=O)=O)c(-c3ncc4ncn(-c5ccc(OC(F)(F)F)cc5)c4n3)cc12` [Compound 39, 2-(4-fluorophenyl)-N-methyl-6-(N-methylmethylsulfonamido)-5-(9-(4-(trifluoromethoxy)phenyl)-9H-purin-2-yl)benzofuran-3-carboxamide]: the pIC50 in the assay with HCV replicon genotype 1b is 7.08; in the assay with HCV replicon genotype 1a, 5.74.

For the molecule `CNC(=O)c1c(-c2ccc(F)cc2)oc2cc(N(C)S(C)(=O)=O)c(-c3ncc4ncn(-c5ccc(F)cc5)c4n3)cc12` [Compound 40], the figures for the pIC50 with HCV replicon genotype 1b and in the assay with HCV replicon genotype 1a were 7.69 and 6.47, respectively.

Regarding `CNC(=O)c1c(-c2ccc(F)cc2)oc2cc(N(C)S(C)(=O)=O)c(-c3ncc4ncn(-c5ccc(C(F)(F)F)cc5)c4n3)cc12` [Compound 41], the pIC50 with HCV replicon genotype 1b is 8.17; in the assay with HCV replicon genotype 1a, 6.93.

As for `CNC(=O)c1c(-c2ccc(F)cc2)oc2cc(N(C)S(C)(=O)=O)c(-c3ncc4ncn(-c5ccc(C#N)cc5)c4n3)cc12` [Compound 42], the negative-log IC50 (pIC50) in the assay with HCV replicon genotype 1b was 6.52; with HCV replicon genotype 1a, 5.82.

On to `CNC(=O)c1c(-c2ccc(F)cc2)oc2cc(N(C)S(C)(=O)=O)c(-c3ccc4ncn(-c5cc(F)cc(F)c5)c4n3)cc12` [Compound 43], for which the values for the pIC50 with HCV replicon genotype 1b and in the assay with HCV replicon genotype 1a were 7.76 and 6.80, respectively.

As for `CNC(=O)c1c(-c2ccc(F)cc2)oc2cc(N(C)S(C)(=O)=O)c(-c3ccc4ncn(-c5ccc(F)cc5)c4n3)cc12` [Compound 44], the pIC50 is 8.11 with HCV replicon genotype 1b and 7.25 with HCV replicon genotype 1a.

As for `CNC(=O)c1c(-c2ccc(F)cc2)oc2cc(N(C)S(C)(=O)=O)c(-c3cc4c(cn3)ncn4-c3cc(F)cc(F)c3)cc12` [Compound 45], the pIC50 in the assay with HCV replicon genotype 1b is 7.84; with HCV replicon genotype 1a it was 7.02.
